{"source": "the supplement of paper PMC10307832", "experiment_in_all_cases": "relative viability (nuclei count vs DMSO), 5 days (fraction); higher = more cells survive", "key": {"[1]": {"system": "NCI-H520", "in_short": "(§1)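 Lung cancer cell lines were pin-tool dosed in 1536-well plates on the day after seeding, with either a lone drug or a fixed anchor-drug dose plus five library-drug doses (not always all listed) in √10 steps. Nuclei were counted on 4× images after 5 days. Relative viability is the ratio of treated-well to vehicle-well nuclei counts, with each value a median of duplicate plates.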"}, "[2]": {"system": "NCI-H661", "in_short": "as §1"}, "[3]": {"system": "H3255", "in_short": "as §1"}, "[4]": {"system": "NCI-H1975", "in_short": "as §1"}, "[5]": {"system": "NCI-H1944", "in_short": "as §1"}, "[6]": {"system": "COR-L 105", "in_short": "as §1"}, "[7]": {"system": "SK-LU-1", "in_short": "as §1"}, "[8]": {"system": "NCI-H1395", "in_short": "as §1"}, "[9]": {"system": "NCI-H1734", "in_short": "as §1"}, "[10]": {"system": "NCI-H1666", "in_short": "as §1"}, "[11]": {"system": "CAL-12T", "in_short": "as §1"}, "[12]": {"system": "NCI-H838", "in_short": "as §1"}, "[13]": {"system": "NCI-H647", "in_short": "as §1"}, "[14]": {"system": "NCI-H1563", "in_short": "as §1"}, "[15]": {"system": "NCI-H2228", "in_short": "as §1"}, "[16]": {"system": "PC-14", "in_short": "as §1"}, "[17]": {"system": "NCI-H3122", "in_short": "as §1"}, "[18]": {"system": "PC-3 [JPC-3]", "in_short": "as §1"}, "[19]": {"system": "HCC-366", "in_short": "as §1"}, "[20]": {"system": "LC-2-ad", "in_short": "as §1"}, "[21]": {"system": "HARA", "in_short": "as §1"}, "[22]": {"system": "NCI-H1993", "in_short": "as §1"}, "[23]": {"system": "LU99A", "in_short": "as §1"}, "[24]": {"system": "HCC-15", "in_short": "as §1"}}, "data": [{"smiles": "CCCCCCCCCCCC1=C(O)C(=O)C=C(O)C1=O", "note": "[Embelin] + COc1cc2c(Oc3ccc(NC(=O)C4(C(=O)Nc5ccc(F)cc5)CC4)cc3F)ccnc2cc1OCCCN1CCOCC1 [Foretinib] (partner 0.25 µM)", "values": [{"measurement": "relative viability", "setting": "[1]; first compound 0.08 µM", "value": 0.891}, {"measurement": "relative viability", "setting": "[1]; first compound 0.8 µM", "value": 0.891}, {"measurement": "relative viability", "setting": "[1]; first compound 2.53 µM", "value": 0.878}, {"measurement": "relative viability", "setting": "[1]; first compound 8 µM", "value": 0.807}, {"measurement": "relative viability", "setting": "[2]; first compound 0.08 µM", "value": 1.03}, {"measurement": "relative viability", "setting": "[2]; first compound 0.8 µM", "value": 1.08}, {"measurement": "relative viability", "setting": "[2]; first compound 2.53 µM", "value": 0.994}, {"measurement": "relative viability", "setting": "[2]; first compound 8 µM", "value": 0.976}, {"measurement": "relative viability", "setting": "[3]; first compound 0.08 µM", "value": 0.831}, {"measurement": "relative viability", "setting": "[3]; first compound 0.8 µM", "value": 1.01}, {"measurement": "relative viability", "setting": "[3]; first compound 2.53 µM", "value": 0.82}, {"measurement": "relative viability", "setting": "[3]; first compound 8 µM", "value": 0.956}, {"measurement": "relative viability", "setting": "[4]; first compound 0.08 µM", "value": 1.06}, {"measurement": "relative viability", "setting": "[4]; first compound 0.8 µM", "value": 0.97}, {"measurement": "relative viability", "setting": "[4]; first compound 2.53 µM", "value": 1.01}, {"measurement": "relative viability", "setting": "[4]; first compound 8 µM", "value": 1.07}, {"measurement": "relative viability", "setting": "[5]; first compound 0.08 µM", "value": 0.842}, {"measurement": "relative viability", "setting": "[5]; first compound 0.8 µM", "value": 0.968}, {"measurement": "relative viability", "setting": "[5]; first compound 2.53 µM", "value": 0.989}, {"measurement": "relative viability", "setting": "[5]; first compound 8 µM", "value": 0.998}, {"measurement": "relative viability", "setting": "[6]; first compound 0.08 µM", "value": 1.04}, {"measurement": "relative viability", "setting": "[6]; first compound 0.8 µM", "value": 1.05}, {"measurement": "relative viability", "setting": "[6]; first compound 2.53 µM", "value": 1.18}, {"measurement": "relative viability", "setting": "[6]; first compound 8 µM", "value": 0.807}, {"measurement": "relative viability", "setting": "[7]; first compound 0.08 µM", "value": 0.953}, {"measurement": "relative viability", "setting": "[7]; first compound 0.8 µM", "value": 0.861}, {"measurement": "relative viability", "setting": "[7]; first compound 2.53 µM", "value": 1.04}, {"measurement": "relative viability", "setting": "[7]; first compound 8 µM", "value": 0.888}, {"measurement": "relative viability", "setting": "[8]; first compound 0.08 µM", "value": 0.904}, {"measurement": "relative viability", "setting": "[8]; first compound 0.8 µM", "value": 1.13}, {"measurement": "relative viability", "setting": "[8]; first compound 2.53 µM", "value": 1.08}, {"measurement": "relative viability", "setting": "[8]; first compound 8 µM", "value": 0.953}, {"measurement": "relative viability", "setting": "[9]; first compound 0.08 µM", "value": 0.899}, {"measurement": "relative viability", "setting": "[9]; first compound 0.8 µM", "value": 0.926}, {"measurement": "relative viability", "setting": "[9]; first compound 2.53 µM", "value": 0.989}, {"measurement": "relative viability", "setting": "[9]; first compound 8 µM", "value": 0.924}, {"measurement": "relative viability", "setting": "[10]; first compound 0.08 µM", "value": 0.943}, {"measurement": "relative viability", "setting": "[10]; first compound 0.8 µM", "value": 1.07}, {"measurement": "relative viability", "setting": "[10]; first compound 2.53 µM", "value": 0.978}, {"measurement": "relative viability", "setting": "[10]; first compound 8 µM", "value": 0.941}, {"measurement": "relative viability", "setting": "[11]; first compound 0.08 µM", "value": 1.1}, {"measurement": "relative viability", "setting": "[11]; first compound 0.8 µM", "value": 1.22}, {"measurement": "relative viability", "setting": "[11]; first compound 2.53 µM", "value": 1.26}, {"measurement": "relative viability", "setting": "[11]; first compound 8 µM", "value": 1.16}, {"measurement": "relative viability", "setting": "[12]; first compound 0.08 µM", "value": 1.08}, {"measurement": "relative viability", "setting": "[12]; first compound 0.8 µM", "value": 1.11}, {"measurement": "relative viability", "setting": "[12]; first compound 2.53 µM", "value": 1.06}, {"measurement": "relative viability", "setting": "[12]; first compound 8 µM", "value": 1.09}, {"measurement": "relative viability", "setting": "[13]; first compound 0.08 µM", "value": 1.37}, {"measurement": "relative viability", "setting": "[13]; first compound 0.8 µM", "value": 1.38}, {"measurement": "relative viability", "setting": "[13]; first compound 2.53 µM", "value": 1.28}, {"measurement": "relative viability", "setting": "[13]; first compound 8 µM", "value": 1.08}, {"measurement": "relative viability", "setting": "[14]; first compound 0.08 µM", "value": 0.932}, {"measurement": "relative viability", "setting": "[14]; first compound 0.8 µM", "value": 1.09}, {"measurement": "relative viability", "setting": "[14]; first compound 2.53 µM", "value": 0.944}, {"measurement": "relative viability", "setting": "[14]; first compound 8 µM", "value": 0.896}, {"measurement": "relative viability", "setting": "[15]; first compound 0.08 µM", "value": 1.08}, {"measurement": "relative viability", "setting": "[15]; first compound 0.8 µM", "value": 0.868}, {"measurement": "relative viability", "setting": "[15]; first compound 2.53 µM", "value": 1.32}, {"measurement": "relative viability", "setting": "[15]; first compound 8 µM", "value": 0.996}, {"measurement": "relative viability", "setting": "[16]; first compound 0.08 µM", "value": 1.05}, {"measurement": "relative viability", "setting": "[16]; first compound 0.8 µM", "value": 0.992}, {"measurement": "relative viability", "setting": "[16]; first compound 2.53 µM", "value": 1.06}, {"measurement": "relative viability", "setting": "[16]; first compound 8 µM", "value": 1.08}, {"measurement": "relative viability", "setting": "[17]; first compound 0.08 µM", "value": 0.98}, {"measurement": "relative viability", "setting": "[17]; first compound 0.8 µM", "value": 1.01}, {"measurement": "relative viability", "setting": "[17]; first compound 2.53 µM", "value": 0.951}, {"measurement": "relative viability", "setting": "[17]; first compound 8 µM", "value": 1.03}, {"measurement": "relative viability", "setting": "[18]; first compound 0.08 µM", "value": 1.01}, {"measurement": "relative viability", "setting": "[18]; first compound 0.8 µM", "value": 1.02}, {"measurement": "relative viability", "setting": "[18]; first compound 2.53 µM", "value": 0.985}, {"measurement": "relative viability", "setting": "[18]; first compound 8 µM", "value": 1.08}, {"measurement": "relative viability", "setting": "[19]; first compound 0.08 µM", "value": 0.906}, {"measurement": "relative viability", "setting": "[19]; first compound 0.8 µM", "value": 1.03}, {"measurement": "relative viability", "setting": "[19]; first compound 2.53 µM", "value": 0.94}, {"measurement": "relative viability", "setting": "[19]; first compound 8 µM", "value": 0.99}, {"measurement": "relative viability", "setting": "[20]; first compound 0.08 µM", "value": 0.916}, {"measurement": "relative viability", "setting": "[20]; first compound 0.8 µM", "value": 0.987}, {"measurement": "relative viability", "setting": "[20]; first compound 2.53 µM", "value": 1.13}, {"measurement": "relative viability", "setting": "[20]; first compound 8 µM", "value": 0.861}, {"measurement": "relative viability", "setting": "[21]; first compound 0.08 µM", "value": 0.827}, {"measurement": "relative viability", "setting": "[21]; first compound 0.8 µM", "value": 0.968}, {"measurement": "relative viability", "setting": "[21]; first compound 2.53 µM", "value": 1.18}, {"measurement": "relative viability", "setting": "[21]; first compound 8 µM", "value": 0.942}, {"measurement": "relative viability", "setting": "[22]; first compound 0.08 µM", "value": 0.803}, {"measurement": "relative viability", "setting": "[22]; first compound 0.8 µM", "value": 0.699}, {"measurement": "relative viability", "setting": "[22]; first compound 2.53 µM", "value": 0.876}, {"measurement": "relative viability", "setting": "[22]; first compound 8 µM", "value": 0.834}, {"measurement": "relative viability", "setting": "[23]; first compound 0.08 µM", "value": 0.907}, {"measurement": "relative viability", "setting": "[23]; first compound 0.8 µM", "value": 0.934}, {"measurement": "relative viability", "setting": "[23]; first compound 2.53 µM", "value": 0.864}, {"measurement": "relative viability", "setting": "[23]; first compound 8 µM", "value": 0.766}, {"measurement": "relative viability", "setting": "[24]; first compound 0.08 µM", "value": 1.01}, {"measurement": "relative viability", "setting": "[24]; first compound 0.8 µM", "value": 1.08}, {"measurement": "relative viability", "setting": "[24]; first compound 2.53 µM", "value": 1.14}, {"measurement": "relative viability", "setting": "[24]; first compound 8 µM", "value": 1.08}]}]}
